Assay results: ChEMBL document CHEMBL6153157, “Novel 3-Aminothieno[2,3-b]pyridine-2-carboxamides with Activity against Mycobacterium tuberculosis” (ACS Med Chem Lett, 2025)

Key:
[1] = Selectivity index, ratio of IC50 for cytotoxicity against human HepG2 cells to IC90 for antibacterial activity against wild type Mycobacterium tuberculosis H37Rv-LP DREAM8 strain expressing codon-optimized DsRed; assay type: toxicity, cell-based
[2] = test system: Mycobacterium tuberculosis; assay: Antibacterial activity against wild type Mycobacterium tuberculosis H37Rv-LP DREAM8 strain expressing codon-optimized DsRed assessed growth inhibition incubated for 5 days by fluorescence spectrophotometric assay; assay type: functional; settings: H37Rv-LP DREAM8, 120 h, time 5 day
[3] = Cytotoxicity against human HepG2 cells assessed as cell growth inhibition incubated for 3 days by CellTiter-Glo reagent-based luminescence assay; assay type: toxicity
[4] = test system: Mycobacterium tuberculosis; assay: Antibacterial activity against Mycobacterium tuberculosis LepB-UE strain under expressing signal peptidase LepB assessed growth inhibition incubated for 5 days by fluorescence spectrophotometric assay; assay type: functional; settings: 120 h, time 5 day

COc1ccc(-c2cc(C(F)(F)F)c3c(N)c(C(=O)NC45CC6CC(CC(O)(C6)C4)C5)sc3n2)cc1
selectivity ratio [1]: 3
IC90 [2]: 7.5 µM
IC50 at 3 days [3]: 19 µM

COc1ccc(-c2cc(C(F)(F)F)c3c(N)c(C(=O)Nc4cc(C)ccc4C)sc3n2)cc1
selectivity ratio [1]: < 1
IC90 [2]: > 100 µM
IC50 at 3 days [3]: 23 µM

COc1ccc(-c2cc(C(F)(F)F)c3c(N)c(C(=O)NC45CC(C4)C5)sc3n2)cc1
selectivity ratio [1]: < 1
IC90 [2]: > 50 µM
IC50 at 3 days [3]: 36 µM

COc1ccc(-c2cc(C(F)(F)F)c3c(N)c(C(=O)NCCc4ccccc4)sc3n2)cc1
selectivity ratio [1]: < 1
IC90 [2]: > 100 µM
IC50 at 3 days [3]: 23 µM

COc1ccc(-c2cc(C(F)(F)F)c3c(N)c(C(=O)NC(C)c4ccccc4)sc3n2)cn1 (stereo not given)
IC90 [2]: 1.2 µM
IC50 at 3 days [3]: 19 µM
IC90 [4]: 0.41 µM
